A short description of series [1]: In vitro release of curcumin by dynamic dialysis method. The conditions noted are these: 20% SDS release medium, 37 °C. The class given is physicochemical. The protocol: In order to evaluate the crosslinking effect, in vitro release profiles of curcumin from DMSO (s-Cur), Cur/NCMs, and Cur/DCMs were studied by dynamic dialysis method with 20% SDS solution as release medium. Lyophilized micelles were reconstituted and diluted to 1 mg/mL of curcumin with PBS (0.1 M, pH 7.4) then placed 1 mL into dialysis tube (MWCO 8000–14,000 Da). The tubes were dialyzed against 50 mL release medium at 37 ± 0.5 °C at a stirring speed of 100 rpm with or without 10 mM GSH. At predetermined time intervals, 1 mL of release medium was withdrawn and replenished with an equal volume of the fresh medium. The amount of curcumin released was determined by HPLC analysis as mentioned above. Cumulative release of curcumin was then calculated. The in vitro release studies were carried out in triplicate.

A short description of series [2]: Pharmacokinetics after i.v. administration in SD rats. The class given is in vivo. Particulars: Sprague-Dawley, rat, plasma, iv. As to the method: Nine SD rats were randomly divided into three groups (three rats for each group), receiving s-Cur, Cur/NCMs, and Cur/DCMs. Following the intravenous (i.v.) administration of the three curcumin formulations (20 mg/kg), 0.1 mL of the blood samples was collected from the tail vein at predetermined time intervals. The blood samples were centrifuged for 6 min at 5867×g to obtain the plasma. Then, the curcumin concentrations in the plasma were analyzed using a liquid chromatography mass spectrometer (LCMS-2020) equipped with a Shimadzu UV-visible spectrophotometer (Columbia, MD). The detection limitation of the equipment was 1 ng/mL. We employed the non-compartmental analysis in WinNonlin software V6.2.1 to calculate major pharmacokinetic parameters.

The next series has as its system MC-38 cells. The series is described as follows: In vitro cytotoxicity, CCK-8 assay. Particulars: Mus musculus, 72 h, curcumin concentration. The class given is cell-based, Murine. As to the method: The cytotoxicity of s-Cur, Cur/NCMs, and Cur/DCMs against MC-38 cells was determined by a CCK-8 assay. Briefly, MC-38 cells were cultured in RPMI1640 medium with 10% FBS, penicillin (100 U/mL), and streptomycin (100 µg/mL) for 24 h. Then, the cells were seeded in 96-well plates (Corning, NY) at 10,000 cells/well in 100 µL medium. After incubation for 24 h, the cells were exposed to s-Cur and equivalent amount of Cur/NCMs and Cur/DCMs to yield final curcumin concentrations from 0 to 65 µg/mL. For GSH triggered release experiments, adherent cells were incubated with 10 mM glutathione monoethyl ester (GSH-OEt) for 2 h before exposure to the curcumin formulations.
After incubation for 72 h, 10 μL CCK8 solution with 100 μL growth medium was added into each well and the cells were incubated for another 1 h. Then, the culture medium was added with 10 μL 1% SDS (dissolve 0.1 g SDS with PBS to obtain 10 mL solution) to stop the reaction, and reading on a Synergy HTX multi-mode reader (BioTek, Winooski, VT) at 450 nm. The cytotoxicity assay was performed in triplicate and the cell viability (%) was calculated with the following equation: (3) Cell viability=At−AB/Ac−AB×100% where At is the absorption value of samples, Ac is the absorption value of the control group, and AB is the absorption value of the blank group. […]
In general terms: Tetrazolium dyes change colour on reduction, which living cells bring about.

The next series deals with p-MEK1/2 and p-Erk1/2. The series is described as follows: Western blot assay of p-MEK1/2 and p-Erk1/2 in MC-38 cells. The conditions noted are these: 10 h. The class given is cell-based, Murine. As to the method:
MC38 cells were lysed using whole protein extraction kit (KeyGEN BioTECH, Nanjing, China, KGP250). Protein concentration was determined using bicinchoninic acid (BCA) protein assay (KeyGEN BioTECH, Nanjing, China, KGPBCA). Protein extracts were electrophoresed in 10% SDS-PAGE and transferred to a nitrocellulose filter (NC) membrane, blocked by 5% skim milk at room temperature for 1 h, which was prepared in Tris-buffered saline with tween 20 (TBST). Then, the membranes were immunoblotted by primary antibodies. For detection, HRP-conjugated secondary antibodies (Ray Antibody Biotech, Beijing, China, RM2001L) and chemiluminescent HRP substrate kit (EpiZyme, Shanghai, China, SQ2O2) were used. As the molecular weight of the target bands is similar, the western blot fast stripping buffer (EpiZyme, Shanghai, China, PS107) was used. The following primary antibodies were used: anti-p-MEK1/2 (Cell Signaling Technology (CST), 41G9, Boston, MA), anti-p-Erk1/2 (CST, 197G2). The blots were quantified using ImageJ (National Institutes of Health, Bethesda, MD) and normalized to the control group.

A further series has as its system MC-38 colon tumor. Further details: method as in our previous research (data not shown). Particulars: in vivo; ref our previous research (data not shown); cited from earlier work.

As usually defined, the AUC(0-inf) is total exposure, with the tail of the curve extrapolated. A low value points to low exposure. By AUC(0-t) is commonly meant exposure summed from dosing to a finite time, without extrapolation to infinity. Usually Cmax stands for the highest concentration seen after dosing. For orientation: half-life means the time in which the quantity being followed falls by half. In general, IC50 refers to the concentration that inhibits the measured activity by half.

`COc1cc(C=CC(=O)CC(=O)C=Cc2ccc(O)c(OC)c2)ccc1O` [s-Cur, 1,7-bis(4-hydroxy-3-methoxyphenyl)-1,6-heptadiene-3,5-dione]: in series [1] (at 24 h), the curcumin released was found to be 75%. For the same compound, the curcumin released entry in series [1] (within the first 8 h) was “About 60%”. Further, the concentration at 12 h in series [2] (i.v. 20 mg/kg, after 12 h (detection limit), read-out: plasma curcumin level) is less than 1 ng/mL. Moreover, the concentration at 30 min in series [2] (i.v. 20 mg/kg, within 30 min, read-out: plasma curcumin level) is less than 100 ng/mL. In series [2] (single dosage 20 mg/kg), the AUC(0-inf) came to 1970 ng·h/mL, the area under the curve AUC(0-t) came to 1960 ng·h/mL, the Cmax was 7120 ng/mL and the half-life is 83.4 min. Further, the clearance in series [2] (single dosage 20 mg/kg, read-out: CLz (converted)) was 170 mL/min/kg. The MRT last in series [2] (single dosage 20 mg/kg, read-out: MRT(0–t)) was 9 min. Besides, in series [2] (single dosage 20 mg/kg, read-out: MRT(0–∞)), the MRT inf was 9.6 min. In addition, in series [2] (single dosage 20 mg/kg, read-out: Vz), the Vd was determined as 20.4 L/kg. Moreover, the IC50 with MC-38 cells came out at 13.7 µg/mL. The “expression of the proliferative marker proteins p-MEK1/2 and p-ERK1/2” value in the series on p-MEK1/2 and p-Erk1/2 is given as “significantly low expression”. In addition, the “enhancement of the antitumor effects of anti-PD-1” value with MC-38 colon tumor is reported as “not to be able to significantly enhance the antitumor effects of anti-PD-1”.
